US9073830B2 (Hyundai Pharm Co., Ltd., priority 2011, dated 2015)

Columns and labels:
human 11β-HSD1 = molecular target: T1, human 11β-HSD1 (Homo sapiens, UniProt P28845); assay: Enzyme activity analysis on human 11β-HSD1 (HTRF cortisol, liver microsomes); format: biochemical; conditions: first value of cell
T1 construct: 100 ug/ml human/mouse liver microsomes; from tissue; host or cells: human liver microsomes
Procedure, shortened: (§1)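 Cortisol generated by mouse or human liver microsome 11β-HSD1 during 2 h at 37° C., measured by HTRF competition (cryptate anti-cortisol antibody, d2-cortisol, 2 h room temperature) against a cortisol standard curve. IC50 from percent inhibition versus no-compound control.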

mouse 11β-HSD1 = molecular target: T2, mouse 11β-HSD1 (Mus musculus, UniProt P50172); assay: Enzyme activity analysis on mouse 11β-HSD1 (HTRF cortisol, liver microsomes); format: biochemical; conditions: second value of cell
T2 construct: 100 ug/ml human/mouse liver microsomes; from tissue; host or cells: mouse liver microsomes
Procedure, shortened: as §1

T2 sequence (P50172 whole entry): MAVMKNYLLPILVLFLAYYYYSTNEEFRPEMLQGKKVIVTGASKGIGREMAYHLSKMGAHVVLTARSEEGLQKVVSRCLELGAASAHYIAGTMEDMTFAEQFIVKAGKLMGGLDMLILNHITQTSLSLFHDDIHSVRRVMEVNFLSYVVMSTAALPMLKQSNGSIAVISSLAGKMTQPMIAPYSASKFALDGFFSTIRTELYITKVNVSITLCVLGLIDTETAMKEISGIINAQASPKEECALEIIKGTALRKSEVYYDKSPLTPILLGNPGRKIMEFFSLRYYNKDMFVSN
T1 sequence (P28845 whole entry): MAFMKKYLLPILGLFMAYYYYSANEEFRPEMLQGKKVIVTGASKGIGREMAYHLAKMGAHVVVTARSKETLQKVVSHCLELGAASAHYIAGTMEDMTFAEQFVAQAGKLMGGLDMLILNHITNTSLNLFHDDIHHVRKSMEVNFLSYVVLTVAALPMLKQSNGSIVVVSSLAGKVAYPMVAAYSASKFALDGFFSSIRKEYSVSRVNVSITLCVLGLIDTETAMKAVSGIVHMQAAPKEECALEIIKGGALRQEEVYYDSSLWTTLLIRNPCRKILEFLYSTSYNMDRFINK

| IC50 (human 11β-HSD1) [µM] | IC50 (mouse 11β-HSD1) [µM] | Structure (SMILES) |
| --- | --- | --- |
| 0.004 | 0.016 | CN(C1(C(=O)NC2C3CC4CC2CC(C(N)=O)(C4)C3)CCC1)S(=O)(=O)c1ccccc1[N+](=O)[O-] (stereo not shown) [compound 199, N-4-(1-(N-methyl-2-nitrophenylsulfonamido)cyclobutanecarboxyamido)adamantane-1-carboxyamide] |
| 0.105 | 0.621 | CC(C)(NS(=O)(=O)c1ccc(Cl)cc1Cl)C(=O)NC1C2CC3CC(C2)CC1C3 (stereo not shown) [compound 46, N-(adamantane-2-yl)-2-methyl-2-(2,4-dichlorophenylsulfonamido)propanamide] |
| 0.018 | 0.21 | CC(C)(NS(=O)(=O)c1ccc(Br)cc1OC(F)(F)F)C(=O)NC1C2CC3CC1CC(C(N)=O)(C3)C2 (stereo not shown) [compound 100, N-4-(2-(2-trifluoromethoxy-4-bromophenylsulfonamido)-2-methylpropanamido)adamantane-1-carboxyamide] |
| 0.223 | 0.289 | CC(C)(NS(=O)(=O)c1cccnc1Cl)C(=O)NC1C2CC3CC1CC(C(N)=O)(C3)C2 (stereo not shown) [compound 96, N-4-(2-(2-chloropyridine-3-sulfonamido)-2-methylpropanamido)adamantane-1-carboxyamide] |
| 0.015 | 0.04 | Cc1c(Cl)cccc1S(=O)(=O)NC1(C(=O)NC2C3CC4CC2CC(C(N)=O)(C4)C3)CCC1 (stereo not shown) [compound 149, N-4-(1-(2-methyl-3-chlorophenylsulfonamido)cyclobutanecarboxyamido)adamantane-1-carboxyamide] |
| 0.093 | 0.207 | Cc1ccc(S(=O)(=O)NC(C)(C)C(=O)NC2C3CC4CC2CC(C(N)=O)(C4)C3)cc1[N+](=O)[O-] (stereo not shown) [compound 114, N-4-(2-(3-nitro-4-methylphenylsulfonamido)-2-methylpropanamido)adamantane-1-carboxyamide] |
| 0.026 | 0.037 | Cc1ccc(S(=O)(=O)NC(C)(C)C(=O)NC2C3CC4CC2CC(C(N)=O)(C4)C3)cc1Cl (stereo not shown) [compound 103, N-4-(2-(3-chloro-4-methylphenylsulfonamido)-2-methylpropanamido)adamantane-1-carboxyamide] |
| > 2.5 | > 2.5 | CC(C)(NS(=O)(=O)c1ccccc1Cl)C(=O)NC1C2CC3CC1CC(C(=O)NCCO)(C3)C2 (stereo not shown) [compound 231, 4-[2-(2-chloro-benzenesulfonylamino)-2-methyl-propionylamino]-adamantane-1-carboxylic acid ethanolamide] |
| 0.028 | 0.119 | NC(=O)C12CC3CC(C1)C(NC(=O)C1(NS(=O)(=O)c4ccccc4F)CCCCC1)C(C3)C2 (stereo not shown) [compound 185, N-4-(1-(2-fluorophenylsulfonamido)cyclohexanecarboxyamido)adamantane-1-carboxyamide] |
| 0.076 | > 2.5 | Cc1ccc(S(=O)(=O)NC2(C(=O)NC3C4CC5CC3CC(C(N)=O)(C5)C4)CCCCC2)cc1F (stereo not shown) [compound 187, N-4-(1-(3-fluoro-4-methylphenylsulfonamido)cyclohexanecarboxyamido)adamantane-1-carboxyamide] |
| 0.053 | 0.462 | CCCN(C(C)(C)C(=O)NC1C2CC3CC1CC(C(N)=O)(C3)C2)S(=O)(=O)c1ccccc1C(F)(F)F (stereo not shown) [compound 218, N-4-(2-(2-trifluoromethyl-N-propylphenylsulfonamido)-2-methylpropanamido)adamantane-1-carboxyamide] |
| 1.33 | 1.7 | CC(C)(NS(=O)(=O)c1ccc([N+](=O)[O-])cc1)C(=O)NC1C2CC3CC(C2)CC1C3 (stereo not shown) [compound 3, N-(adamantane-2-yl)-2-methyl-2-(4-nitrophenylsulfonamido)propanamide] |
| 0.139 | 0.291 | CC(C)(NS(=O)(=O)c1cccc(Br)c1)C(=O)NC1C2CC3CC1CC(C(N)=O)(C3)C2 (stereo not shown) [compound 123] |
| 0.062 | 0.038 | COc1ccccc1S(=O)(=O)NC(C)(C)C(=O)NC1C2CC3CC1CC(C(N)=O)(C3)C2 (stereo not shown) [compound 226, 4-[2-(2-methoxy-benzenesulfonylamino)-2-methyl-propionylamino]-adamantane-1-carboxylic acid amide] |
| 0.03 | 0.221 | CC(C)(NS(=O)(=O)c1ccc(Cl)cc1Cl)C(=O)NC1C2CC3CC1CC(O)(C3)C2 (stereo not shown) [compound 81, N-(5-hydroxyadamantane-2-yl)-2-methyl-2-(2,4-dichlorophenylsulfonamido)propanamide] |
| 0.096 | 0.126 | NC(=O)C12CC3CC(C1)C(NC(=O)C1(NS(=O)(=O)c4cccc(Cl)c4F)CCC1)C(C3)C2 (stereo not shown) [compound 159, N-4-(1-(2-fluoro-3-chlorophenylsulfonamido)cyclobutanecarboxyamido)adamantane-1-carboxyamide] |
| 0.016 | 0.053 | NC(=O)C12CC3CC(C1)C(NC(=O)C1(NS(=O)(=O)c4ccccc4C(F)(F)F)CCCC1)C(C3)C2 (stereo not shown) [compound 172, N-4-(1-(2-trifluoromethylphenylsulfonamido)cyclopentanecarboxyamido)adamantane-1-carboxyamide] |
| 1.3 | 2.46 | COc1ccc(S(=O)(=O)NC(C)(C)C(=O)NC2C3CC4CC2CC(C(N)=O)(C4)C3)cc1[N+](=O)[O-] (stereo not shown) [compound 111, N-4-(2-(3-nitro-4-methoxyphenylsulfonamido)-2-methylpropanamido)adamantane-1-carboxyamide] |

| IC50 (human 11β-HSD1) [µM] | IC50 (mouse 11β-HSD1) [µM] | Structure (SMILES) |
| --- | --- | --- |
| 0.02 | 0.037 | CC(C)(NS(=O)(=O)c1cccc(Cl)c1F)C(=O)NC1C2CC3CC1CC(C(N)=O)(C3)C2 (stereo not shown) [compound 102, N-4-(2-(2-fluoro-3-chlorophenylsulfonamido)-2-methylpropanamido)adamantane-1-carboxyamide] |
| > 2.5 | > 2.5 | O=C(NCCO)C12CC3CC(C1)C(NC(=O)C1(NS(=O)(=O)c4ccccc4Cl)CCC1)C(C3)C2 (stereo not shown) [compound 232] |
| 0.182 | 0.455 | CC(C)(NS(=O)(=O)c1ccc(C(F)(F)F)cc1)C(=O)NC1C2CC3CC1CC(C(N)=O)(C3)C2 (stereo not shown) [compound 126] |
| > 2.5 | > 2.5 | O=C(NC1C2CC3CC(C2)CC1C3)C1(NS(=O)(=O)c2ccc([N+](=O)[O-])cc2)CCC1 (stereo not shown) [compound 143, N-(adamantane-2-yl)-1-(4-nitrophenylsulfonamido)cyclobutanecarboxyamide] |
| 0.035 | 0.122 | CC(C)(NS(=O)(=O)c1ccc(F)c(F)c1F)C(=O)NC1C2CC3CC1CC(C(N)=O)(C3)C2 (stereo not shown) [compound 116, N-4-(2-(2,3,4-trifluorophenylsulfonamido)-2-methylpropanamido)adamantane-1-carboxy amide] |
| 0.093 | 0.378 | CC(C)(NS(=O)(=O)c1ccccc1)C(=O)NC1C2CC3CC1CC(O)(C3)C2 (stereo not shown) [compound 70] |
| 0.492 | 0.575 | CC(C)(NS(=O)(=O)c1cccc([N+](=O)[O-])c1)C(=O)NC1C2CC3CC1CC(O)(C3)C2 (stereo not shown) [compound 77, N-(5-hydroxyadamantane-2-yl)-2-methyl-2-(3-nitrophenylsulfonamido)propanamide] |
| 0.02 | 1.83 | COc1ccc(OC)c(S(=O)(=O)NC(C)(C)C(=O)NC2C3CC4CC(C3)CC2C4)c1 (stereo not shown) [compound 48, N-(adamantane-2-yl)-2-methyl-2-(2,5-dimethoxyphenylsulfonamido)propanamide] |
| 0.146 | 2.08 | Cc1ccc([N+](=O)[O-])cc1S(=O)(=O)NC(C)(C)C(=O)NC1C2CC3CC1CC(O)(C3)C2 (stereo not shown) [compound 76, N-(5-hydroxyadamantane-2-yl)-2-methyl-2-(2-methyl-5-nitrophenylsulfonamido)propanamide] |
| 0.008 | 0.003 | CN(C(C)(C)C(=O)NC1C2CC3CC1CC(C(N)=O)(C3)C2)S(=O)(=O)c1cccc(Cl)c1Cl (stereo not shown) [compound 198] |
| 0.079 | 0.305 | CC(C)(NS(=O)(=O)c1c(F)cccc1F)C(=O)NC1C2CC3CC1CC(O)(C3)C2 (stereo not shown) [compound 74, N-(5-hydroxyadamantane-2-yl)-2-methyl-2-(2,6-difluorophenylsulfonamido)propanamide] |
| 0.153 | 0.571 | CC(C)(NS(=O)(=O)c1ccc(OC(F)F)cc1)C(=O)NC1C2CC3CC1CC(C(N)=O)(C3)C2 (stereo not shown) [compound 93, N-4-(2-(4-difluoromethoxyphenylsulfonamido)-2-methylpropanamido)adamantane-1-carboxyamide] |
| 0.012 | 0.088 | CN(C(C)(C)C(=O)NC1C2CC3CC(C2)CC1C3)S(=O)(=O)c1ccccc1C(F)(F)F (stereo not shown) [compound 201, N-(adamantane-2-yl)-2-(2-trifluoromethyl-N-methylphenylsulfonamido)-2-methylpropan amide] |
| 0.039 | 0.186 | CC(C)(NS(=O)(=O)c1ccc(F)cc1Cl)C(=O)NC1C2CC3CC(C2)CC1C3 (stereo not shown) [compound 55, N-(adamantane-2-yl)-2-methyl-2-(4-fluoro-2-chlorophenylsulfonamido)propanamide] |
| 0.014 | 0.556 | CC(C)(NS(=O)(=O)c1cc(C(F)(F)F)ccc1Br)C(=O)NC1C2CC3CC1CC(C(N)=O)(C3)C2 (stereo not shown) [compound 110, N-4-(2-(2-bromo-5-trifluoromethylphenylsulfonamido)-2-methylpropanamido)adamantane-1-carboxyamide] |
| 0.034 | 0.255 | CC(C)(NS(=O)(=O)c1ccccc1F)C(=O)NC1C2CC3CC(C2)CC1C3 (stereo not shown) [compound 16, N-(adamantane-2-yl)-2-methyl-2-(2-fluorophenylsulfonamido)propanamide] |
| 0.024 | 0.191 | CCN(C(C)(C)C(=O)NC1C2CC3CC1CC(C(N)=O)(C3)C2)S(=O)(=O)c1cccc(Cl)c1Cl (stereo not shown) [compound 212] |
